US20070276049A1 (priority 2003, published 2007)
Read-outs that look alike come from different tables or passages of the source.

What was measured:
[1] = system: Streptococcus pyogenes T18P; type: cell-based, S. pyogenes; settings: GML 10 and 20 ug/ml
[2] = system: rabbit RBCs; type: cell-based
[3] = system: human RBCs; type: cell-based
[4] = system: rabbit RBCs; test: Streptolysin O-induced hemolysis on RBC-containing agar plates; type: cell-based; settings: GML 10 μg/ml in agar; Group A Streptococci stabbed into agar
Method: GML (10 μg/ml) was incorporated into culture plates containing solid agar and rabbit RBCs suspended in the agar. The effect of GML on. streptolysin O-induced hemolysis was tested by stabbing the Group A Streptococci into the agar so as to permit the anaerobic growth of the bacteria beneath the surface of the agar and thereby allow streptolysin O to function.

[5] = system: HIV-1; type: cell-based
[6] = system: rabbit RBCs

Compound	number of bacteria in the epithelial cells [1]	lysis of RBCs by hemolysin [2]	lysis of human RBCs by the B. anthracis exotoxin ([3]; GML 1 μg/ml)	lysis of human RBCs by the B. anthracis exotoxin ([3]; GML 10 μg/ml)	streptolysin O-induced hemolysis of RBCs [4]	cells expressing p24 [5]	total number of cells in the samples [5]	RBC lysis by GML alone [6]	lysis of rabbit RBCs by the B. anthracis exotoxin ([6]; GML 5 μg/ml)	lysis of rabbit RBCs by the B. anthracis exotoxin ([6]; GML 10 μg/ml)	Absorbance at 410 nm [2]	lysis of RBCs [2]
CCCCCCCCCCCC(=O)OCC(O)CO (stereo not drawn) [GML, glycerol monolaurate]	dramatic decreases	completely prevented	partially inhibited	completely inhibited	completely prevented	rare and no	significantly less	did not cause RBC lysis	partially inhibited	almost completely inhibited	–	–
α-hemolysin	–	–	–	–	–	–	–	–	–	–	0.97	complete cell lysis
